Test [1] has as its target T1, adenosine A2a receptor (A2aR) (Homo sapiens, UniProt P29274).
T1 construct: expressed in transfected cells; host or cells: CHO-K1
Description: Inhibition of the adenosine A2a receptor cAMP signaling pathway in CHO-K1/A2aR cells (HTRF). The class given is cell-based. The note with it: for IC50: CHO-K1/A2aR cells, cAMP, Table 1. An excerpt:
(§1) Determination of the inhibition activity of the compounds of the present invention on the adenosine A2a receptor (A2aR) cAMP signaling pathway, the adenosine A2b receptor (A2bR) cAMP signaling pathway, the adenosine A1 receptor (A1R) cAMP signaling pathway and the adenosine A3 receptor (A3R) cAMP signaling pathway.
(§2) The inhibition activity of the compounds of the present invention on the adenosine A2a receptor (A2aR) cAMP signaling pathway, the adenosine A2b receptor cAMP signaling pathway, the adenosine A1 receptor cAMP signaling pathway and the adenosine A3 receptor cAMP signaling pathway was determined by the following method. The experimental method is briefly described as follows:
2.1 Adenosine A2a receptor
CHO-K1/A2aR cells were cultured in DMEM/F12 medium containing 10% fetal bovine serum and 800 μg/ml bleomycin. The cells were digested with the cell separation buffer during the experiment. The cells were resuspended in the balanced salt buffer containing 20 mM HEPES and 0.1% bovine serum albumin and counted, and the cell density was adjusted to 10^6 cells/ml. In the 384-well plate, each well was added with 5 μl of cell suspension, and 2.5 μl of test compound (4× concentration) formulated with the balanced salt buffer containing 20 mM HEPES, 0.1% bovine serum albumin, 54 μM rolipram and 2.7 U/ml adenosine deaminase, and the plate was incubated at room temperature for 30 minutes. Each well was then added with 2.5 μl of […] (4× concentration) formulated with the balanced salt buffer containing 20 mM HEPES, 0.1% bovine serum albumin, 54 μM rolipram and 2.7 U/ml adenosine deaminase, and the plate was incubated at room temperature for 30 minutes. The final concentrations of the compounds were: 10000, 2000, 400, 80, 16, 3.2, 0.64, 0.128, 0.0256, 0.00512, and 0.001024 nM. The final concentration of […] was 20 nM. Intracellular cAMP concentration was detected with the cAMP dynamic 2 kit. cAMP-d2 and Anti-cAMP-Eu-Cryptate were diluted respectively with the cAMP lysis buffer at a ratio of 1:4. Each well was added with 5 μl of diluted cAMP-d2, followed by addition of 5 μl of diluted Anti-cAMP-Eu-Cryptate, and the plate was incubated at room temperature in the dark for 1 hour. The HTRF signal values were read by the PHERAstar multi-function microplate reader.

Test [2] deals with T2, adenosine A1 receptor (A1R) (Homo sapiens, UniProt P30542).
T2 construct: expressed in transfected cells; host or cells: CHO-K1
T2 sequence (P30542 1-326): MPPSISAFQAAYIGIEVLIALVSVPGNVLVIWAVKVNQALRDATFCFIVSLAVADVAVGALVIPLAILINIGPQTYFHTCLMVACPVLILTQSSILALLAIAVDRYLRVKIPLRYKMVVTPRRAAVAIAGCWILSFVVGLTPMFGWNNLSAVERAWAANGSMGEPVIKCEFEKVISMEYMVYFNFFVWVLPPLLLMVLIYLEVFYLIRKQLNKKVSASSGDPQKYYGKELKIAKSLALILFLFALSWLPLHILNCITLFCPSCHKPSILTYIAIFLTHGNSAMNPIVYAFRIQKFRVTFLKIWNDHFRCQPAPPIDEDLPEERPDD
Description: Inhibition of the adenosine A1 receptor cAMP signaling pathway in CHO-K1/A1R cells (HTRF). The format is cell-based. To be noted: for IC50: CHO-K1/A1R cells, cAMP, forskolin 10 μM, CPA 10 nM; for IC50 ratio (A1R/A2aR): selectivity A1R over A2aR.
Excerpt: as §1, §2
2.3 Adenosine A1 Receptor
CHO-K1/A1R cells were cultured in DMEM/F12 medium containing 10% fetal bovine serum and 1 mg/ml G418. The cells were digested with the cell separation buffer during the experiment. The cells were then resuspended in the balanced salt buffer containing 20 mM HEPES and 0.1% bovine serum albumin and counted, and the cell density was adjusted to 5×10^5 cells/ml. In the 384-well plate, each well was added with 12.5 μl of cell suspension, and 6.25 μl of test compound (4× concentration) formulated with the balanced salt buffer containing 20 mM HEPES, 0.1% bovine serum albumin, 54 μM rolipram and 2.7 U/ml adenosine deaminase, and the plate was incubated at room temperature for 30 minutes. Each well was then added with 6.25 μl of forskolin and N6-cyclopentyladenosine (4× concentration) formulated with the balanced salt buffer containing 20 mM HEPES, 0.1% bovine serum albumin, 54 μM rolipram and 2.7 U/ml adenosine deaminase, and the plate was incubated at room temperature for 30 minutes. The final concentrations of the compounds were: 100000, 10000, 1000, 100, 10, 1, 0.1 and 0 nM. The final concentrations of forskolin was 10 μM. The final concentrations of CPA was 10 nM. Intracellular cAMP concentration was detected with the cAMP dynamic 2 kit. cAMP-d2 and Anti-cAMP-Eu-Cryptate were diluted respectively with the cAMP lysis buffer at a ratio of 1:4. Each well was added with 12.5 μl of diluted cAMP-d2, followed by addition of 12.5 μl of diluted Anti-cAMP-Eu-Cryptate, and the plate was incubated at room temperature in the dark for 1 hour. The HTRF signal values were read by the PHERAstar multi-function microplate reader.

T1 sequence (P29274 whole entry): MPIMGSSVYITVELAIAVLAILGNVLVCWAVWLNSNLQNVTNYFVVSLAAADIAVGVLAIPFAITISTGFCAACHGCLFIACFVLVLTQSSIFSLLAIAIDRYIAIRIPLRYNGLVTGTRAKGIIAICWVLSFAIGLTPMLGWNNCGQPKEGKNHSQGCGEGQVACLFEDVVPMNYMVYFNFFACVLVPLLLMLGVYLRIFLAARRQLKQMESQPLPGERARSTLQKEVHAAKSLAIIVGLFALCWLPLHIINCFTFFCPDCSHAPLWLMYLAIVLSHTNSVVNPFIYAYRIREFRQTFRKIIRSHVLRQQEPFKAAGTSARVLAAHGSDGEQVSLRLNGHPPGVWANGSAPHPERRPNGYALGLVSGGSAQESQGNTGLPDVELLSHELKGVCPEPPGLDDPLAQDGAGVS

One may read the IC50 as the concentration that inhibits the measured activity by half. A higher IC50 goes with lower potency. Compound `Nc1nnc(-c2cc(F)c3ncccc3c2)c(-c2ccccc2)n1` [Example 2, 6-(8-Fluoroquinolin-6-yl)-5-phenyl-1,2,4-triazin-3-amine] registered an IC50 in test [1] (NECA 20 nM) of 0.6 nM. Besides, in test [2], inhibition was half-maximal at 133 nM (IC50) and the “IC50 ratio (A1R/A2aR)” value turned out to be 221.
The compound `Nc1nnc(-c2ccc3ncccc3c2)c(-c2ccccc2)n1` [Example 3, 5-Phenyl-6-(quinolin-6-yl)-1,2,4-triazin-3-amine] yielded an IC50 in test [1] (NECA 20 nM) of 0.7 nM. Besides, the “difference in inhibition activity on the adenosine A2a receptor versus Comparative Example 1” value in test [1] (compared with Comparative Example 1) amounted to 225 times. Also, in test [2], the midpoint of inhibition, the IC50, lay at 97 nM and the “IC50 ratio (A1R/A2aR)” value amounted to 139.
Turning to `Cc1ncnc2ccc(-c3nnc(N)nc3-c3ccccc3)cc12` [Example 15, 6-(4-Methylquinazolin-6-yl)-5-phenyl-1,2,4-triazin-3-amine], the IC50 in test [1] (NECA 20 nM) turned out to be 0.1 nM; in test [2], 248 nM. Moreover, the “IC50 ratio (A1R/A2aR)” value in test [2] stood at 2484.
As to `Cc1ccnc2c(F)cc(-c3nnc(N)nc3-c3ccccc3)cc12` [Example 16, 6-(8-Fluoro-4-methylquinolin-6-yl)-5-phenyl-1,2,4-triazin-3-amine], the IC50 in test [1] (NECA 20 nM) came out at 0.2 nM. Also, in test [2], the IC50 stood at 161 nM and the “IC50 ratio (A1R/A2aR)” value stood at 803.
Turning to `Cc1ccnc2ccc(-c3nnc(N)nc3-c3ccccc3F)cc12` [Example 17, 5-(2-Fluorophenyl)-6-(4-methylquinolin-6-yl)-1,2,4-triazin-3-amine], the IC50 in test [1] (NECA 20 nM) turned out to be 0.5 nM. Moreover, in test [2], half-maximal inhibition (IC50) was put at 1350 nM and the “IC50 ratio (A1R/A2aR)” value is 2698.
For `Cc1ccnc2ccc(-c3nnc(N)nc3-c3ccc(F)cc3)cc12` [Example 18, 5-(4-Fluorophenyl)-6-(4-methylquinolin-6-yl)-1,2,4-triazin-3-amine], in that order: 0.2 nM, 190 nM and 948.
Turning to `Cc1ncnc2ccc(-c3nnc(N)nc3-c3ccc(F)cc3)cc12` [Example 19, 5-(4-Fluorophenyl)-6-(4-methylquinazolin-6-yl)-1,2,4-triazin-3-amine], it took 0.4 nM to reach half-maximal inhibition in test [1] (20 nM) (IC50). In test [2], the IC50 was determined as 1420 nM and the “IC50 ratio (A1R/A2aR)” value was 3557.
`Cc1ccnc2c(F)cc(-c3nnc(N)nc3-c3ccc(F)cc3)cc12` [Example 20, 6-(8-Fluoro-4-methylquinolin-6-yl)-5-(4-fluorophenyl)-1,2,4-triazin-3-amine]: the IC50 came out at 1.5 nM in test [1] (NECA 20 nM) and 617 nM in test [2]. For the same compound, in test [2], the “IC50 ratio (A1R/A2aR)” value was 411.
The like results for `[2H]C([2H])([2H])c1ccnc2ccc(-c3nnc(N)nc3-c3ccc(F)cc3)cc12` [Example 22, 5-(4-Fluorophenyl)-6-[4-(trideuteromethyl)-6-quinolinyl]-1,2,4-triazin-3-amine] were, in that order, 0.3 nM, 100 nM and 334.
The like results for `Cc1ccnc2c(F)cc(-c3nnc(N)nc3-c3ccccc3F)cc12` [Example 31, 6-(8-Fluoro-4-methylquinolin-6-yl)-5-(2-fluorophenyl)-1,2,4-triazin-3-amine] were, in that order, 3.8 nM, 1640 nM and 431.
The like results for `CCc1ccnc2ccc(-c3nnc(N)nc3-c3ccc(F)cc3)cc12` [Example 44, 6-(4-Ethylquinolin-6-yl)-5-(4-fluorophenyl)-1,2,4-triazin-3-amine] were, in that order, 0.8 nM, 646 nM and 807.
In test [1] (NECA 20 nM), `Cc1ncnc2c(F)cc(-c3nnc(N)nc3-c3ccccc3)cc12` [Example 45, 6-(8-Fluoro-4-methylquinazolin-6-yl)-5-phenyl-1,2,4-triazin-3-amine] had an IC50 of 1.2 nM. In addition, in test [2], it took 930 nM to reach half-maximal inhibition (IC50) and the “IC50 ratio (A1R/A2aR)” value was found to be 775.
Regarding `[2H]C([2H])([2H])c1ncnc2ccc(-c3nnc(N)nc3-c3ccc(F)cc3)cc12` [Example 52, 5-(4-Fluorophenyl)-6-(4-(methyl-d3)quinazolin-6-yl)-1,2,4-triazin-3-amine], in test [1] (20 nM), it took 0.9 nM to reach half-maximal inhibition (IC50). In test [2], the IC50 worked out at 876 nM and the “IC50 ratio (A1R/A2aR)” value was 973.
